# Values of other authors as cited in PubChem BioAssay AID1259410 (Chemical Carcinogenesis Research Information System (CCRIS), 2018).
# System: rodent tumor promotion studies, tumor incidence
# Test: CCRIS tumor promotion studies
# [1] = Carcinogen: 7,12-DIMETHYLBENZ(A)ANTHRACENE, Doses [Carcinogen]: TOP, Route [Carcinogen]: DERMAL, Route [Promoter]: DERMAL, Species: MOUSE, Strain/Sex: FEMALE
smiles,measurement,setting,value
CC(C)(C)CC(C)(C)c1ccc(O)cc1,outcome,"Carcinogen: N-ETHYL-N'-NITRO-N-NITROSOGUANIDINE, 4245-77-6, Doses [Carcinogen]: 20 MG/KG BW ONCE AT 3 MO OF AGE, Doses [Promoter]: 100 MG/KG BW IN DMSO BEGINNING AT 3 MO OF AGE, 5X/WK FOR FIRST 2 WK, 3X/WK FOR NEXT 11 WK, 2X/WK FOR STUDY DURATION (STU, Route [Carcinogen]: INTRAUTERINE, Route [Promoter]: SUBCUTANEOUS, Species: RAT, Strain/Sex: DONRYU/FEMALE",uterus: adenocarcinoma
same,outcome,"Doses [Carcinogen]: 20 MG/KG ONCE AT 11 WK OF AGE, Doses [Promoter]: 0, 100 MG/KG/D IN DMSO, EVERY OTHER DAY POSTNATAL DAYS 1 THROUGH 5 (STUDY DURATION: 15 MO), Route [Carcinogen]: INTRAUTERINE, Route [Promoter]: SUBCUTANEOUS, Species: RAT, Strain/Sex: DONRYU/FEMALE",uterus: adenocarcinoma
same,outcome,"Doses [Carcinogen]: 20 MG/KG ONCE AT 11 WK OF AGE, Doses [Promoter]: 0, 100 MG/KG/D IN DMSO, EVERY OTHER DAY POSTNATAL DAYS 1 THROUGH 15 (STUDY DURATION: 15 MO), Route [Carcinogen]: INTRAUTERINE, Route [Promoter]: SUBCUTANEOUS, Species: RAT, Strain/Sex: DONRYU/FEMALE",uterus: adenocarcinoma
CC(C)(c1ccc(O)cc1)c1ccc(O)cc1,outcome,"Carcinogen: 7,120Dimethylbenzanthracene (57-97-6), Doses [Carcinogen]: 30 mg/kg bw once to female offspring at 50 days of age, Doses [Promoter]: 0, 25, 250 ug/kg daily for 18 d from d 2 to d 20 postpartum to dams, Doses [Promoter]: 0, 25, 250 ug/kg daily for 18 d from d 2 to d 20 postpartum to dams, Route [Carcinogen]: Intragastric gavage, Route [Promoter]: Intragastric gavage, Species: Rat, Strain/Sex: Sprague Dawley CD/Female",breast tumors: incidence increased in offspring of 250 ug/kg dams; latent period
Cc1ncc([N+](=O)[O-])n1CCO,outcome,"Carcinogen: 1,2-DIMETHYLHYDRAZINE, 540-73-8, Doses [Carcinogen]: 40 MG/KG/WK FOR 20 WK, Doses [Promoter]: 0, 18 MG/KG/D FOR 20 WK (STUDY DURATION: 20 WK), Route [Carcinogen]: SUBCUTANEOUS, Route [Promoter]: GAVAGE, Species: RAT, Strain/Sex: WISTAR/MALE",colon: tumor
same,outcome,"Carcinogen: UV IRRADIATION, Doses [Carcinogen]: 0.53 J/CM2 INCREASED BY 20% EVERY 2 WK TO 1.60 J/CM2 AND MAINTAINED AT 1.60 J/CM2 UNTIL DEATH, ADMINISTERED 5 D/WK FOR 1, Doses [Promoter]: 0, 15 UG/G BEGINNING 2 WK POST FIRST CARCINOGEN DOSE ADMINISTERED 2 HR PRIOR TO EACH CARCINOGEN DOSE (STUDY DURATION: 30, Route [Carcinogen]: DERMAL, Route [Promoter]: INTRAPERITONEAL, Species: MOUSE, Strain/Sex: SKH/HRL/FEMALE",skin: tumor
[K+],outcome,"Carcinogen: N-BIS-(2-HYDROXYPROPYL)NITROSAMINE [53609-64-6], Doses [Carcinogen]: 2800 MG/KG BW ONCE (STUDY DURATION: 83 WK), Doses [Promoter]: 1000 PPM IN DRINKING WATER FOR 82 WK BEGINNING 1 WK POST LAST CARCINOGEN DOSE (STUDY DURATION: 83 WK), Route [Carcinogen]: SUBCUTANEOUS, Route [Promoter]: ORAL, Species: RAT, Strain/Sex: F344/MALE",thyroid gland: follicular cell carcinoma
same,outcome,"Carcinogen: N-Ethyl-N-hydroxyethylnitrosamine, 13147-25-6, Doses [Carcinogen]: 500 ppm in drinking water for 2 wk, Doses [Promoter]: 0, 350, 1750 ppm in drinking water beginning post carcinogen treatment and continuing for 24 wk (study duration: 26 wk), Doses [Promoter]: 0, 350, 1750 ppm in drinking water beginning post carcinogen treatment and continuing for 24 wk (study duration: 26 wk), Route [Carcinogen]: Oral, Route [Promoter]: Oral, Species: Rat, Strain/Sex: F344/Male (15/group)",kidney: renal cell tumors (no promoting effect observed)
c1ccc(-c2ccccc2)cc1,outcome,"Carcinogen: N-BUTYL-N-(4-HYDROXYBUTYL)NITROSAMINE, 3817-11-6, Doses [Carcinogen]: 0.05% IN DRINKING WATER FOR 4 WK, Doses [Promoter]: 0, 0.5% IN DIET FOR 32 WK BEGINNING POST CARCINOGEN TREATMENT (STUDY DURATION: 36 WK), Route [Carcinogen]: ORAL, Route [Promoter]: ORAL, Species: RAT, Strain/Sex: F344/MALE","urinary bladder: papilloma, carcinoma"
Oc1ccc(/C=C/c2cc(O)cc(O)c2)cc1,outcome,"Carcinogen: N-METHYL-N-NITROSOUREA, 684-93-5, Doses [Carcinogen]: 50 MG/KG ONCE AT 7 WK OF AGE, Doses [Promoter]: 100 MG/KG DAILY FOR 5 D AT 2 WK OF AGE (STUDY DURATION: 37 WK), Route [Carcinogen]: INTRAPERITONEAL, Route [Promoter]: SUBCUTANEOUS, Species: RAT, Strain/Sex: SPRAGUE-DAWLEY/FEMALE",mammary gland: adenocarcinoma
CC1=C2C(=CO[C@H](C)[C@H]2C)C(=O)C(C(=O)O)=C1O,outcome,"Carcinogen: OCHRATOXIN A, 303-47-9, Doses [Carcinogen]: 0.25 ML OF A 50 PPM SOLUTION 2/WK FOR 20 WK, Doses [Promoter]: 0, 0.25 ML OF 50 PPM SOLUTION 2/WK FOR 20 WK ADMINISTERED SIMULTANEOUSLY WITH CARCINOGEN TREATMENT (STUDY DURATION: 20 W, Route [Carcinogen]: GAVAGE, Route [Promoter]: GAVAGE, Species: MOUSE, Strain/Sex: ALBINO/MALE,FEMALE",kidney: tumor
same,outcome,"Carcinogen: OCHRATOXIN A, 303-47-9, Doses [Carcinogen]: 0.25 ML OF A 50 PPM SOLUTION 2/WK FOR 20 WK, Doses [Promoter]: 0, 0.25 ML OF A 50 PPM SOLUTION ADMINISTERED SIMULTANEOUSLY WITH CARCINOGEN DOSE 2/WK FOR 20 WK (STUDY DURATION: 20 WK), Route [Carcinogen]: GAVAGE, Route [Promoter]: GAVAGE, Species: MOUSE, Strain/Sex: SWISS/MALE,FEMALE",kidney: tumor
CCCCCCCCCCO,outcome,[1],integumentary system (skin)
C=C(CC(=O)OC)C(=O)OC,outcome,"Carcinogen: N-METHYLNITROSOUREA, 684-93-5, Doses [Carcinogen]: 100 PPM IN DRINKING WATER FOR 15 WK, Doses [Promoter]: 0, 0.5% IN DRINKING WATER FOR 37 WK BEGINNING POST CARCINOGEN TREATMENT (STUDY DURATION: 52 WK), Route [Carcinogen]: ORAL, Route [Promoter]: ORAL, Species: RAT, Strain/Sex: F344/MALE","glandular stomach: adenoma, carcinoma"
NN=C(N)N,outcome,"Carcinogen: AZOXYMETHANE, Doses [Carcinogen]: 2.5 MG/KG IN DISTILLED WATER 1/WK FOR 10 WK, Doses [Promoter]: 100 MG/KG IN 0.9%, NACL, 3/WK FOR 24 WK ADMINISTERED SIMULTANEOUSLY AND POST CARCINOGEN DOSES (STUDY DURATION: 52 WK), Route [Carcinogen]: SUBCUTANEOUS, Route [Promoter]: INTRAGASTRIC, Species: RAT, Strain/Sex: F344/MALE",colon: tumor
same,outcome,"Carcinogen: N-METHYL-N'-NITRO-N-NITROSOGUANIDINE, 70-25-7, Doses [Carcinogen]: 25 UG/ML IN DRINKING WATER FOR 25 WK, Doses [Promoter]: 0, 25 MG/KG BW 1/2 D FOR 25 WK BEGINNING POST CARCINOGEN TREATMENT (STUDY DURATION: 52 WK), Route [Carcinogen]: ORAL, Route [Promoter]: SUBCUTANEOUS, Species: RAT, Strain/Sex: WISTAR/MALE",stomach: adenocarcinoma
C[C@H](CCC(=O)O)[C@H]1CC[C@H]2[C@@H]3[C@H](O)C[C@@H]4C[C@H](O)CC[C@]4(C)[C@H]3CC[C@]12C,outcome,"Carcinogen: 3-METHYLCHOLANTHRENE, 56-49-5, Doses [Carcinogen]: 3 MG IN BEESWAX PELLET, Doses [Promoter]: 0, 3 MG IN BEESWAX PELLET (STUDY DURATION: 5 MO), Route [Carcinogen]: IMPLANT, Route [Promoter]: IMPLANT, Species: HAMSTER",gallbladder: tumor
same,outcome,"Doses [Carcinogen]: IR, Route [Carcinogen]: RECTAL, Route [Promoter]: RECTAL, Species: RAT, Strain/Sex: FEMALE",colon
Cc1ccc(O)c(C)c1,outcome,[1],integumentary system (skin)
CCCCCCCC/C=C/CCCCCCCC(=O)OCCOCC(OCCO)C1OCC(OCCO)C1OCCO (stereo not given),outcome,[1],integumentary system (skin)
